# Laboratory results taken from ChEMBL document CHEMBL1134813, “Inhibition of HIV-1 infection by synthetic peptide analogues derived from the NH(2)-Terminal extracellular region of GPR1” (Bioorg Med Chem Lett, 2001).
# Where a SMILES comes first, the peptide text is derived from it. [ ]: non-standard residue; d: D form. The star is where a group is joined. sY = N[C@@H](Cc1ccc(OS(=O)(=O)O)cc1)C(=O)O; X1 = O=S(=O)(O)O*
# Assays:
# C8166 [1] = assay: Anti HIV-1 activity was evaluated through C8166/GUN1WT syncytium formation assay at a concentration of 50 ug/mL; assay type: functional, Homo sapiens
# [2] = Anti HIV-1 activity measured in terms of cytotoxicity against NP-2/CD4/GPR1 cells infected with HIV-1 (GUN1V); assay type: functional, cell-based, Homo sapiens
# C8166 [3] = assay: Anti HIV-1 activity was evaluated through C8166/GUN1WT syncytium formation assay at a concentration of 200 ug/mL; assay type: functional, Homo sapiens
# C8166 [4] = assay: Anti HIV-1 activity was evaluated through C8166/GUN1WT syncytium formation assay at a concentration of 1000 ug/mL; assay type: functional, Homo sapiens
# [5] = Anti HIV-1 activity measured in terms of cytotoxicity against NP-2/CD4/CCR5 cells infected with HIV-1(GUN1WT); assay type: functional, cell-based, Homo sapiens
# [6] = Anti HIV-1 activity measured in terms of cytotoxicity against NP-2/CD4/CXCR4 cells infected with HIV-1 (IIIBstrain); assay type: functional, cell-based, Homo sapiens
# [7] = Anti HIV-1 activity measured in terms of cytotoxicity against NP-2/CD4/CXCR4 cells infected with HIV-1(GUN1WT); assay type: functional, cell-based, Homo sapiens
# C8166 [8] = assay: Anti HIV-1 activity was evaluated through C8166/GUN1WT syncytium formation assay at a concentration of 0 ug/mL; assay type: functional, Homo sapiens
SMILES,Activity (C8166 [1]),IC50 [2] [µM],Activity (C8166 [3]),Activity (C8166 [4]),IC50 ([2]; Homo sapiens) [µM],"IC50 ([5]; Homo sapiens, CCR5) [µM]",IC50 ([6]; Homo sapiens) [µM],IC50 ([7]; Homo sapiens) [µM],IC50 ([5]; np-2/cd4/ccr5) [µM],IC50 [6] [µM],IC50 [7] [µM],Activity (C8166 [8])
CC(C)C[C@H](NC(=O)[C@H](CC(=O)OS(=O)(=O)[O-])NC(=O)[C@H](Cc1ccc(OS(=O)(=O)[O-])cc1)NC(=O)[C@H](COS(=O)(=O)[O-])NC(=O)[C@@H](N)Cc1ccc(OS(=O)(=O)[O-])cc1)C(=O)N[C@@H](CC(=O)OS(=O)(=O)[O-])C(=O)N[C@@H](Cc1ccc(OS(=O)(=O)[O-])cc1)C(=O)N[C@@H](Cc1ccc(OS(=O)(=O)[O-])cc1)C(=O)O.[Na+].[Na+].[Na+].[Na+].[Na+].[Na+].[Na+],235,660,210,191,,,,,,,,
CCN(CC)CC.CCN(CC)CC.CCN(CC)CC.CCN(CC)CC.CCN(CC)CC.CCN(CC)CC.CCN(CC)CC.CCN(CC)CC.COC(=O)C(=O)N1CCC[C@H]1C(=O)N[C@H](Cc1ccccc1)C(=O)Nc1ccccc1OCC(=O)N[C@@H](Cc1ccc(OS(=O)(=O)O)cc1)C(=O)N[C@@H](COS(=O)(=O)O)C(=O)N[C@@H](Cc1ccc(OS(=O)(=O)O)cc1)C(=O)N[C@@H](CC(=O)OS(=O)(=O)O)C(=O)N[C@@H](CC(C)C)C(=O)N[C@@H](CC(=O)OS(=O)(=O)O)C(=O)N[C@@H](Cc1ccc(OS(=O)(=O)O)cc1)C(=O)N[C@@H](Cc1ccc(OS(=O)(=O)O)cc1)C(=O)O,219,,66,1,4.1,42,10,10,,,,
CC(C)C[C@H](NC(=O)[C@H](CC(=O)OS(=O)(=O)O)NC(=O)[C@H](Cc1ccc(OS(=O)(=O)O)cc1)NC(=O)[C@H](COS(=O)(=O)O)NC(=O)[C@@H](N)Cc1ccc(OS(=O)(=O)O)cc1)C(=O)N[C@@H](CC(=O)OS(=O)(=O)O)C(=O)N[C@@H](Cc1ccc(OS(=O)(=O)O)cc1)C(=O)N[C@@H](Cc1ccc(OS(=O)(=O)O)cc1)C(=O)O.CCN(CC)CC.CCN(CC)CC.CCN(CC)CC.CCN(CC)CC.CCN(CC)CC.CCN(CC)CC.CCN(CC)CC,258,4.5,52,4,,,,,42,18,10,
CC(C)C[C@H](NC(=O)[C@H](CC(=O)OS(=O)(=O)O)NC(=O)[C@H](Cc1ccc(OS(=O)(=O)O)cc1)NC(=O)[C@H](COS(=O)(=O)O)NC(=O)[C@@H](N)Cc1ccc(OS(=O)(=O)O)cc1)C(=O)N[C@@H](CC(=O)OS(=O)(=O)O)C(=O)N[C@@H](Cc1ccc(OS(=O)(=O)O)cc1)C(=O)N[C@@H](Cc1ccc(OS(=O)(=O)O)cc1)C(=O)O,231,> 1000,165,124,,,,,> 1000,> 1000,> 1000,
CCN(CC)CC.CCN(CC)CC.CCN(CC)CC.CCN(CC)CC.CCN(CC)CC.COC(=O)C(=O)N1CCC[C@H]1C(=O)N[C@H](Cc1ccccc1)C(=O)Nc1ccccc1OCC(=O)N[C@@H](Cc1ccc(OS(=O)(=O)O)cc1)C(=O)N[C@@H](CC(=O)OS(=O)(=O)O)C(=O)N[C@@H](CC(C)C)C(=O)N[C@@H](CC(=O)OS(=O)(=O)O)C(=O)N[C@@H](Cc1ccc(OS(=O)(=O)O)cc1)C(=O)N[C@@H](Cc1ccc(OS(=O)(=O)O)cc1)C(=O)O,182,,88,12,35,60,55,80,,,,
COC(=O)C(=O)N1CCC[C@H]1C(=O)N[C@H](Cc1ccccc1)C(=O)Nc1ccccc1OCC(=O)N[C@@H](Cc1ccc(O)cc1)C(=O)N[C@@H](CC(=O)O)C(=O)N[C@@H](CC(C)C)C(=O)N[C@@H](CC(=O)O)C(=O)N[C@@H](Cc1ccc(O)cc1)C(=O)N[C@@H](Cc1ccc(O)cc1)C(=O)O,155,,100,55,100,120,150,100,,,,192
COC(=O)C(=O)N1CCC[C@H]1C(=O)N[C@H](Cc1ccccc1)C(=O)Nc1ccccc1OCC(=O)N[C@@H](Cc1ccc(O)cc1)C(=O)N[C@@H](CO)C(=O)N[C@@H](Cc1ccc(O)cc1)C(=O)N[C@@H](CC(=O)O)C(=O)N[C@@H](CC(C)C)C(=O)N[C@@H](CC(=O)O)C(=O)N[C@@H](Cc1ccc(O)cc1)C(=O)N[C@@H](Cc1ccc(O)cc1)C(=O)O,215,,222,121,660,> 1000,> 1000,> 1000,,,,
CC(C)C[C@H](NC(=O)[C@H](CC(=O)O)NC(=O)[C@@H](N)Cc1ccc(O)cc1)C(=O)N[C@@H](CC(=O)O)C(=O)N[C@@H](Cc1ccc(O)cc1)C(=O)N[C@@H](Cc1ccc(O)cc1)C(=O)O (H-YDLDYY-OH),188,,62,4,42,66,350,180,,,,
CC(C)C[C@H](NC(=O)[C@H](CC(=O)O)NC(=O)[C@H](Cc1ccc(O)cc1)NC(=O)[C@H](CO)NC(=O)[C@@H](N)Cc1ccc(O)cc1)C(=O)N[C@@H](CC(=O)O)C(=O)N[C@@H](Cc1ccc(O)cc1)C(=O)N[C@@H](Cc1ccc(O)cc1)C(=O)O (H-YSYDLDYY-OH),228,,252,133,660,> 1000,> 1000,> 1000,,,,
CC(C)C[C@H](NC(=O)[C@H](CC(=O)OS(=O)(=O)O)NC(=O)[C@@H](N)Cc1ccc(OS(=O)(=O)O)cc1)C(=O)N[C@@H](CC(=O)OS(=O)(=O)O)C(=O)N[C@@H](Cc1ccc(OS(=O)(=O)O)cc1)C(=O)N[C@@H](Cc1ccc(OS(=O)(=O)O)cc1)C(=O)O.CCN(CC)CC.CCN(CC)CC.CCN(CC)CC.CCN(CC)CC.CCN(CC)CC (H-[sY]D(X1)LD(X1)[sY][sY]-OH),193,,52,0,25,55,15,65,,,,215
